The values below come from patent publication US8957056B2, “Migrastatin analogs in the treatment of cancer” (Sloan-Kettering Instiute for Cancer Research, priority 2004, dated 2015).

The conditions of data set [1]: rcm bond, toluene, 0.25 h.
Another data set deals with HUVEC. The experiment in a line: Tube formation assay. It counts as cell-based, human. The note with it: HUVEC on matrigel, 16-18 h, tested concentrations 200, 100, 50, 25, 10 μM. On the procedure: A protocol was designed based on the instructions from the provider (BD Bioscience, San Jose, Calif.). Briefly, wells of a 48 well culture dish were covert with 150 μL matrigel and the matrigel was gelatinized for 30 min at 37° C. A 80-90% confluent HUVEC (BD Bioscience, San Jose, Calif.) culture was trypsin treated, the detached cells were collected by centrifugation and resuspended in EGM-2 media (BD Bioscience, San Jose, Calif.). Cell concentration was adjusted to 100.000 cells/mL. 400 μL of the cell suspension were filled in the matrigel coated wells, and a solution of the inhibitor was added to the intended final concentration. The plates were incubated at 37° C. with 5% CO2 for 16-18 h. Media was removed, and the matrigel surface was washed twice with 500 μL PBS before cells were labeled with 250 μL 8 μM Calcein AM (Pierce, Rockford, Ill.) in PBS for 30 min at 37° C. After two additional washing steps (500 μL PBS) cells were visualized under an inverted microscope. Fluorescence was excited at 488 nm and recorded at 538 nm. The minimum effect concentration was defined as the minimal inhibitor concentration that caused a definite disturbance of the complexity of the formed tube network.

The subject of data set [2] is adherent cells (e.g. KYSE-520 cells). The experiment in a line: Wound healing (scratch) assay, preliminary (Table 2). It counts as cell-based. To be noted: 28 to 30 h, tested concentrations 200, 100, 50, 25, 10 μM. On the procedure: The wound healing assay was performed based on the method described by Nakae et al. (Nakae et al., J. Antibiotics (2000), 53, 1130-1136). Briefly, adherent cells were grown in a suitable media to confluence (e.g. KYSE-520 cells in RPMI-1640 with 10% FBS). Cells were starved for 24 h in serum free media A scratch (ca. 0.5 mm) was applied and the cell layer was washed twice with PBS after removal of the media. Fresh, serum free media with the test compound at the desired concentration was added and the cells were incubated for 28 to 30 h at 37° C., 5% CO2. The scratch size was compared to that observed for cells exposed to 100 μM Migrastatin. Test compounds associated with a scratch size equal to or larger than that observed for cells exposed to 100 μM Migrastatin were deemed to have cell migration inhibitory activity at least equal to Migrastatin.

The nature of data set [3]: Mouse blood plasma stability. On the procedure:
The biological evaluation of the compounds (in terms of their ability to inhibit cell migration) was accomplished in a Boyden chamber cell migration assay. In this assay, mouse breast tumor cells (4T1 cells) or endothelial cells (HUVECs) are seeded on the upper chamber of a transwell insert. Growth factor-containing serum is added to the lower chamber.
In anticipation of subsequent in vivo evaluation of these compounds and others, preliminary metabolic stability studies were carried out. […] As a test of the ‘deactivation hypothesis’, the hydrolysis product of macrolactone 48 was prepared (Scheme 27) and tested for its activity against tumor cell migration.

In data set [4] the test system is mouse breast tumor cells (4T1 cells). Kind of data set: Boyden chamber cell migration assay, 4T1. In kind it is cell-based. The note with it: for IC50: 4T1 tumor cells, 6-8 hours, read-out: IC50 value, chamber cell migration assay; for inhibitory activity on tumor cell migration: 4T1 chamber assay.
The test system is the same in data set [5]. The note with it: chamber assay with mouse breast tumor cells; reported in WO 2004/087672; cited from earlier work.

Read-outs that look alike come from different tables or passages of the source.

`CO[C@H]1C=CCC/C=C/C(=O)OC/C(C)=C\[C@@H](C)[C@@H]1O[Si](C)(C)C(C)(C)C` had a ring closure, yield of all isomers in data set [1] (from C=CCC/C=C/C(=O)OC/C(C)=C\[C@@H](C)[C@H](O[Si](C)(C)C(C)(C)C)[C@H](C=C)OC, Grubbs II, 0.664 mM, 111.0 °C) of 55%.

For the molecule `CO[C@H]1C=CCC/C=C/C(=O)O[C@H]([C@H](C)C(=O)CCCC2CC(=O)NC(=O)C2)/C(C)=C\[C@@H](C)[C@@H]1O[Si](C)(C)C(C)(C)C`, in data set [1] (from C=CCC/C=C/C(=O)O[C@@H](/C(C)=C\[C@@H](C)[C@H](O[Si](C)(C)C(C)(C)C)[C@H](C=C)OC)[C@H](C)C(=O)CCCC1CC(=O)NC(=O)C1, Grubbs II, 0.46 mM, 111.0 °C), the ring closure, yield of all isomers came out at 69%.

Turning to `CO[C@H]1C=CCCCCC(=O)CC/C(C)=C\[C@@H](C)[C@@H]1O[Si](C)(C)C(C)(C)C`, in data set [1] (from C=CCCCCC(=O)CC/C(C)=C\[C@@H](C)[C@H](O[Si](C)(C)C(C)(C)C)[C@H](C=C)OC, Grubbs-II catalyst, 0.508 mM, 110.0 °C), the ring closure, yield of all isomers came to 81%.

For `CO[C@H]1C=CCCCCC(=O)NC/C(C)=C\[C@@H](C)[C@@H]1O[Si](C)(C)C(C)(C)C`, the ring closure, yield of all isomers in data set [1] (from C=CCCCCC(=O)NC/C(C)=C\[C@@H](C)[C@H](O[Si](C)(C)C(C)(C)C)[C@H](C=C)OC, Grubbs II, 0.709 mM, 111.0 °C) came out at 60%.

On to `CO[C@H]1C=CCCCCC(=O)OC/C(C)=C\[C@@H](C)[C@@H]1O[Si](C)(C)C(C)(C)C`, for which the ring closure, yield of all isomers in data set [1] (from C=CCCCCC(=O)OC/C(C)=C\[C@@H](C)[C@H](O[Si](C)(C)C(C)(C)C)[C@H](C=C)OC, Grubbs II, 0.498 mM, 111.0 °C) came out at 76%.

With `CO[C@H]1C=CCCCCC(=O)O[C@@H](C(C)C)/C(C)=C\[C@@H](C)[C@@H]1O`, the ring closure, yield of all isomers in data set [1] (from C=CCCCCC(=O)O[C@H](/C(C)=C\[C@@H](C)[C@H](O[Si](C)(C)C(C)(C)C)[C@H](C=C)OC)C(C)C, Grubbs-II catalyst, 0.53 mM, 110.0 °C, 2 steps) was 65%.

With `CO[C@H]1C=CCCCCC(=O)O[C@H]([C@H](C)C(=O)CCCC2CC(=O)NC(=O)C2)/C(C)=C\[C@@H](C)[C@@H]1O[Si](C)(C)C(C)(C)C`, the ring closure, yield of all isomers in data set [1] (from C=CCCCCC(=O)O[C@@H](/C(C)=C\[C@@H](C)[C@H](O[Si](C)(C)C(C)(C)C)[C@H](C=C)OC)[C@H](C)C(=O)CCCC1CC(=O)NC(=O)C1, Grubbs II, 0.48 mM, 111.0 °C) amounted to 79%.

With `COC1C=CCCCCC(=O)OC(C(C)C(=O)CCCC2CC(=O)NC(=O)C2)C(C)=CC(C)C1O` (stereo not shown) [Compound 41, 2,3-Dihydromigrastatin], the Minimum effect concentration is 50 µM in the data set on HUVEC and 25 µM in data set [2]. The “metabolic stability in mouse blood plasma” value (“metabolic stability” for short) in data set [3] (mouse, plasma) is given as “completely inert toward lactone opening”. Moreover, the IC50 in data set [4] stood at 10 µM.

For the molecule `COC1C=CCCCCC(=O)OC(C(C)C(=O)CCCC2CC(=O)N(C)C(=O)C2)C(C)=CC(C)C1O` (stereo not shown) [Compound 42, N-Methyl-2,3-Dihydromigrastatin], the “metabolic stability” value in data set [3] (mouse, plasma) is “completely inert toward lactone opening”. Also, the IC50 in data set [4] was determined as 7 µM.

`CO[C@H]1/C=C/CC/C=C/C(=O)OC/C(C)=C\[C@@H](C)[C@@H]1O` [Compound 45, Migrastatin Core]: the Minimum effect concentration in the data set with HUVEC amounted to 10 µM. For the same molecule, the “metabolic stability” value in data set [3] (test period one hour) was “hydrolyzed rapidly”.

With `CO[C@H]1/C=C/CCCCC(=O)OC/C(C)=C\[C@@H](C)[C@@H]1OC(C)=O` [Compound 49, Acetylated Macrolactone], the “inhibitory activity on tumor cell migration” value (from here on “inhibitory activity”) in data set [4] is listed as “reduced by roughly an order of magnitude”.

In the case of `CO[C@H]1/C=C/CCCCC(=O)OC/C(C)=C\[C@@H](C)C1=O` [Compound 50, Oxidized Macrolactone], the “inhibitory activity” value in data set [4] is “reduced by roughly an order of magnitude”.

Take `CO[C@@H](/C=C/CCCCC(=O)O)[C@@H](O)[C@H](C)/C=C(/C)CO` [Compound 51, Hydrolyzed Core]: the IC50 in data set [4] (Mus musculus) came to 0.378 µM.

As to `COC1C=CCCCCC(=O)OC(C(C)C)C(C)=CC(C)C1O` [Compound 65, (S)-Isopropyl Macrolactone], the “metabolic stability” value in data set [3] (mouse, plasma) is on record as “no sign of degradation”. Further, the “inhibitory activity” value in data set [4] is recorded as “only very weak effects on tumor cell migration”.

Regarding `COC1C=CCCCCC(=O)OC(C(C)C)C(C)=CC(C)C1O` [Compound 68, (R)-Isopropyl Macrolactone], the “metabolic stability” value in data set [3] (mouse, plasma) was “no sign of degradation”. In data set [4], the “inhibitory activity” value was “only very weak effects on tumor cell migration”.

Consider `CO[C@H]1/C=C/CCCCC(O)CC/C(C)=C\[C@@H](C)[C@@H]1O` (stereo partly shown) [Compound 69, Macrocyclic Secondary Alcohol], for which the “ability to inhibit tumor cell migration” value in data set [5] is reported as “rather weak migration inhibitors”.

On to `CO[C@H]1/C=C/CCCCC(C)(O)CC/C(C)=C\[C@@H](C)[C@@H]1O` (stereo partly shown) [Compound 70, Macrocyclic Tertiary Alcohol], for which, in data set [5], the “ability to inhibit tumor cell migration” value was “rather weak migration inhibitors”.

Regarding `CO[C@H]1/C=C/CCCCC(O)(C(F)(F)F)CC/C(C)=C\[C@@H](C)[C@@H]1O` (stereo partly shown) [Compound 71, Macrocyclic CF3-Alcohol], in data set [5], the “ability to inhibit tumor cell migration” value is on record as “displays the same activity profile as macroketone 60”.

For the molecule `CO[C@H]1/C=C/CCCCC(=NO)CC/C(C)=C\[C@@H](C)[C@@H]1O` [Compound 72, Macrooxime], the “ability to inhibit tumor cell migration” value in data set [5] was “rather weak migration inhibitors”.

For `COC1C=CCCC=CC(=O)OC(C(C)C(=O)CCCC2CC(=O)N(C)C(=O)C2)C(C)=CC(C)C1O` (stereo not shown) [N-Methyl-migrastatin], the Minimum effect concentration in the data set on HUVEC was determined as 200 µM; in data set [2], 100 µM.
